# Reference: US10736971B2, “Peptide-based molecules for modulating car expression or accessibility and uses thereof” (Wright State University, priority 2015, dated 2020)
# Residues, ends and D or L forms follow the SMILES beside them.
# Key:
# AdV [1] = test: qPCR of AdV viral genome in primary human airway epithelia; format: cell-based; details: versus control
# CAR^Ex8 [2] = test: Western blot of CAR^Ex8 in well differentiated primary human airway epithelia; format: cell-based; details: versus control
# From the text: (A) Western blotting from human airway epithelia treated with either TAT-scramble or TAT-PDZ1 peptides (TAT-E6 or TAT-NET1). […] Actin was used to confirm equal protein loading.
# CAR^Ex8 [3] = test: Immunocytochemistry of CAR^Ex8 in polarized MDCK cells; format: cell-based, canine; details: 50 μM
# From the text: CAR^Ex8 is localized mainly at the apical surface of polarized MDCK cells. […] Red (CAR^Ex8), Green (MAGI-1, a junctional protein), Blue (nucleus, DAPI). 60× oil immersion confocal microscopy.
# (A) CAR^Ex8 (red) localizes mainly at the apical membrane of MDCK epithelial cells (see xz section). […] 60× oil immersion confocal microscopy.
# MAGI-1 PDZ1 domain = MAGI-1 PDZ1 domain (Homo sapiens, UniProt Q96QZ7); test: Ligand binding assay with purified MAGI-1 PDZ1 domain
# Sequence of MAGI-1 PDZ1 domain (Q96QZ7 472-554 limits assumed): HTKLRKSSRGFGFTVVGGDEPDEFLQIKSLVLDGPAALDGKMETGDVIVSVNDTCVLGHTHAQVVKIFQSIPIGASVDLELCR
# From the text: Ligand binding assay between TAT-ESAM and purified MAGI-1 PDZ1 or PDZ-3.
# MAGI-1 PDZ3 domain was used as a control.
# AdV [4] = test: qPCR of AdV viral genome (transduction/entry) in MDCK epithelia; format: cell-based, canine; details: versus control
# From the text: (§1) MAGI-1 PDZ binding peptides (BP) can alter CAR^EX8 apical protein levels and AdV infection. […] A) MAGI-1 PDZ1 can rescue CAR^Ex8 expression while PDZ3 decreases CAR^EX8 expression. B) Peptides that bind to PDZ3 will prevent degradation of CAR^Ex8 and rescue CAR^EX8 expression and C) peptides that bind to PDZ1 will prevent rescue of CAR^Ex8 and […] CAR^Ex8 degradation. D) Apical surface-specific biotinylation of polarized MDCK epithelia treated with PDZ1 binding peptide decreases apical levels of CAR^EX8 while PDZ3 binding peptide increase apical CAR^EX8, relative to control. E) Treatment with PDZ3 binding peptide increases while PDZ1 binding peptide decreases AdV5-β-Gal entry as determined by qPCR for viral genomes (Vg). F) AdV5-Cre infection turns cells from red (uninfected) to green (infected) in tDT-mouse airway epithelial cells. Baseline infection in control-peptide treated airway epithelia show an even distribution of uninfected red cells and infected green cells.
# (§2) (A) Western blotting of MDCK cells treated with either TAT-CAR^Ex8 or control TAT-CAR^Ex8-AA. […] (C) Polarized MDCK cells were treated with either TAT-CAR^Ex8 or TAT-ESAM and the apical surface subjected to apical surface biotinylation, followed by neutravidin pull down and Western blot of apical surface proteins. […] (E) TAT-cell permeable peptides interrupt MAGI-1-CAR^Ex8 interactions. […]
# CAR^Ex8 [5] = test: Western blot / apical surface biotinylation of CAR^Ex8 in MDCK epithelia; format: cell-based, canine
# From the text: as §1, §2
# [6] = tested on: primary human airway epithelia; test: Epithelial integrity (TER, FITC-Dextran diffusion) and toxicity; format: cell-based
# Description: In panel (A), epithelial cells were seeded on transwells and treated with a single dose of PBS, TAT-scramble or TAT-PDZ3 (TAT-CAR^Ex8 or TAT-ESAM) peptides (50 μM) daily for 16 days. Transepithelial resistance (TER) was measured every other day for 16 days to indicate the amount of epithelial polarization. […] Each condition represents the average of 4 replicates. (B) FITC-Dextran 4 kDa diffusion across treated epithelia in the absence of EDTA. […] (C) Pre-treatment with EDTA to disrupt tight junctions increased Dextran 4 kDa permeability in all conditions. FITC-Dextran 4 kDa was added to the apical membrane compartment and Dextran present in the basolateral media was measured and quantified. […] FITC-Dextran 70 kDa was added to the apical membrane compartment and Dextran in the basolateral media was measured and quantified.
# (A) Primary human airway epithelial cells were treated with a single dose of PBS, TAT-scramble (50 μM), or TAT-PDZ1 peptides (50 μM) each day for 14 days. Transepithelial resistance (TER) was taken every other day for 14 days. No change in TER was noticeable upon treatment with TAT-PDZ1 peptides indicating similar epithelium formation. (B) FITC-Dextran 4 kDa diffusion across treated epithelia in the presence or absence of EDTA. There was no difference in Dextran 4 kDa diffusion among treatments indicating intact epithelial tight junctions. Pre-treatment with EDTA increased Dextran 4 kDa permeability similarly in all conditions indicating disruption of epithelial tight junctions. FITC-Dextran 4 kDa was added to the apical membrane and the diffused Dextran was collected from the basolateral media and measured. (C) There was no difference in Dextran 70 kDa diffusion among treatments indicating intact epithelial tight junctions. FITC-Dextran 70 kDa was added to the apical membrane and the diffused Dextran was collected from the basolateral media and measured.
Compound,AdV genomic transduction / entry (qPCR of viral genome) (AdV [1]),CAR^Ex8 protein level (Western blotting) (CAR^Ex8 [2]),Effect on junctional staining of MAGI-1 (CAR^Ex8 [3]),Immunolocalization of endogenous CAR^Ex8 (CAR^Ex8 [3]),Kd (MAGI-1 PDZ1 domain),AdV genomic transduction / entry (qPCR of viral genome) (AdV [4]),CAR^Ex8 protein level (Western blotting) (CAR^Ex8 [5]),"Transepithelial resistance (TER) ([6]; 50 μM daily for 16 days, versus control)",FITC-Dextran 70 kDa diffusion across epithelia ([6]; TAT-PDZ3 peptide study),"FITC-Dextran 4 kDa diffusion across epithelia ([6]; absence of EDTA, TAT-PDZ3 peptide study)",Toxicity to epithelia ([6]; primary human airway epithelia)
CC(C)C[C@H](NC(=O)[C@H](CCC(N)=O)NC(=O)[C@@H](NC(=O)[C@H](CCC(=O)O)NC(=O)[C@H](CCCNC(=N)N)NC(=O)[C@H](CCCNC(=N)N)NC(=O)[C@@H](NC(=O)[C@H](CCCNC(=N)N)NC(=O)[C@H](CO)NC(=O)[C@H](CCC(N)=O)NC(=O)[C@@H]1CCCN1C(=O)[C@@H]1CCCN1C(=O)[C@H](CCCNC(=N)N)NC(=O)[C@H](CCCNC(=N)N)NC(=O)[C@H](CCCNC(=N)N)NC(=O)[C@H](CCC(N)=O)NC(=O)[C@H](CCCNC(=N)N)NC(=O)[C@H](CCCNC(=N)N)NC(=O)[C@H](CCCCN)NC(=O)[C@H](CCCCN)NC(=O)[C@H](CCCNC(=N)N)NC(=O)CN)[C@@H](C)O)[C@@H](C)O)C(=O)O [TAT-E6] (H-GRKKRRQRRRPPQSRTRRETQL-OH; N-terminus and C-terminus assumed),significant decrease,marked decrease,minor to no effect,delocalization of CAR^Ex8 to the nuclear compartment,15 ± 4 nM,significant decrease,marked decrease,,,,
CC(C)C[C@H](NC(=O)[C@H](CO)NC(=O)CNC(=O)[C@H](C)NC(=O)[C@H](CCC(N)=O)NC(=O)[C@H](CO)NC(=O)[C@H](CCC(N)=O)NC(=O)[C@H](C)NC(=O)[C@H](CCC(N)=O)NC(=O)[C@@H]1CCCN1C(=O)[C@@H]1CCCN1C(=O)[C@H](CCCNC(=N)N)NC(=O)[C@H](CCCNC(=N)N)NC(=O)[C@H](CCCNC(=N)N)NC(=O)[C@H](CCC(N)=O)NC(=O)[C@H](CCCNC(=N)N)NC(=O)[C@H](CCCNC(=N)N)NC(=O)[C@H](CCCCN)NC(=O)[C@H](CCCCN)NC(=O)[C@H](CCCNC(=N)N)NC(=O)CN)C(=O)N[C@H](C(=O)O)C(C)C [TAT-ESAM] (H-GRKKRRQRRRPPQAQSQAGSLV-OH; N-terminus and C-terminus assumed),,,,,,,,No difference,no difference,no difference,no overt toxicity
